Assays:
NCl = assay: Toxicity test on cells, NCl; assay type: cell-based; conditions: 48 hours of treatment, Hoechst nuclei staining
Protocol: (§1) The compounds according to the invention were also tested on the cell lines HuH7, CaCo-2, HCT116, PC3, NCl, HacaT and Fibroblasts.
(§2) Operating Procedure: The cells were cultivated according to the ECACC recommendations. The toxicity test of the compounds on these cells was conducted as follows: 4×10^3 cells/well were sown in 96 wells. 24 hours after sowing the cells, the cells were exposed to increased concentrations of the compounds (0.1 μM-0.3 μM-0.9 μM-2.7 μM-8.3 μM-25 μM). After 48 hours of treatment, the cells were washed in PBS and bound in a cold ethanol/acetic acid (90/5) mixture for 20 minutes. Next, the nuclei were coloured with […] (Sigma). The acquisition of images and the analysis was carried out by means of a reader Cellomics ArrayScan VTI/HCS (Thermo Scientific).

MDA = assay: Toxicity test on cells, MDA; assay type: cell-based; conditions: 48 hours of treatment, Hoechst nuclei staining
Protocol: [The procedure below names another cell line; the source lists this cell line under the same test.] as §1, §2

CaCo2 = assay: Toxicity test on cells, CaCo2; assay type: cell-based; conditions: Homo sapiens, Caco-2; 48 hours of treatment, Hoechst nuclei staining
Protocol: as §1, §2

PC3 = assay: Toxicity test on cells, PC3; assay type: cell-based; conditions: Homo sapiens, PC-3; 48 hours of treatment, Hoechst nuclei staining
Protocol: as §1, §2

HUH7 = assay: Toxicity test on cells, HUH7; assay type: cell-based; conditions: Homo sapiens, Huh-7; 48 hours of treatment, Hoechst nuclei staining
Protocol: as §1, §2

Fibroblasts = assay: Toxicity test on cells, Fibroblasts; assay type: cell-based; conditions: Fibroblast; 48 hours of treatment, Hoechst nuclei staining
Protocol: as §1, §2

HCT116 = assay: Toxicity test on cells, HCT116; assay type: cell-based; conditions: Homo sapiens, HCT-116; 48 hours of treatment, Hoechst nuclei staining
Protocol: as §1, §2

PI3Kγ = PI3Kγ (Homo sapiens, UniProt P48736); assay: PI3Kγ kinase activity, Adapta TR-FRET ADP detection; assay type: biochemical; conditions: p110γ catalytic subunit; read-out: Kinases IC50 PI3Kγ
Protocol: (§3) The activity of the PI3Kα kinase was evaluated by using a purified heterodimer (reference: PV4788 from Invitrogen) consisting of the α catalytic p110 subunit (PIK3CA) and the α regulation p85 subunit (PIK3R1). The assay of the kinase with the kit Adapta™ (reference: PV5099 from Invitrogen) is an enzymatic test based on the detection of ADP, produced during the reaction, by the fluorescence technique TR-FRET. It took place in a 384-well plate and was able to be divided into two phases: an enzymatic reaction phase, and a phase for detecting the ADP level.
(§4) During the enzymatic reaction phase, the following components were mixed in 10 μL of a same well: 2.5 μL of each dilution in series of inhibitors taken up in DMSO and then diluted to 1/25 in the reaction buffer (250 mM HEPES pH 7.5, 500 mM NaCl, 0.15 CHAPS, 5 mM EGTA, 15 mM MgCl2 and 1 mM DTT, ref.: PV5101 from Invitrogen), 2.5 μL of a solution containing PI3K at the optimum concentration (concentration defined according to the optimization step described in the operating procedure of the kit) diluted in the same reaction buffer, and finally, 5 μL of a solution containing 20 μM ATP and 100 μM PIP2 diluted in the reaction buffer. For each inhibitor concentration, the reaction was conducted in three copies (triplicate). The reaction was then incubated for 60 min at room temperature without any stirring in darkness.
(§5) During the phase for detecting ADP, 5 μL of a detection solution containing an anti-ADP antibody labeled with europium (6 nM), a tracer of the Alexa Fluor® 647 type coupled with ADP (30 nM), and EDTA (30 mM, for stopping the kinase reaction) were diluted in the dilution buffer (reference: PV3574 from Invitrogen). After 30 min of incubation at room temperature with stirring (40 rpm) in darkness, the 384-well plates were read in a plate reader Victor V configured for HTRF (Perkin Elmer). The excitation was produced at 340 nm and emission was measured at 665 nm and 615 nm. The inhibition curve was then plotted according to the emission ratio at 665 nm/615 nm versus the inhibitor concentration.
(§6) In order to obtain a linear response of the signal, a titration curve ATP-ADP, corresponding to the conversion % of ATP into ADP, was achieved by varying both of these species while keeping [ADP]+[ATP]=10 μM. The emission ratio at 665 nm/615 nm resulting from this (Y) was plotted versus the conversion % of ATP into ADP (X). The data of this curve were formatted according to a model with three hyperbolic parameters from the following equation: Y=C+A*(1−(X/(B+X))).
(§7) The software package GraphPad™ Prism® thus allows calculation of the parameters A, B and C. A conversion % corresponds to an emission ratio 665 nm/615 nm, this percentage is calculated by using the following equation: Conversion %=B*(C+A−Ratio)/(Ratio−C)
(§8) The three parameters A, B and C having been defined by the preceding equation, the conversion % was therefore able to be plotted versus the inhibitor concentration. The amount of inhibitor required for causing a 50% variation in the % conversion of ATP into ADP corresponds to the IC50 value of the inhibitor.
(§9) The activity of the kinase PI3Kγγ (PV4786 from Invitrogen) was evaluated on the p110γγ catalytic subunit (PI3KCG) and that of the kinase PI3Kδδ on the purified heterodimer (PV5273) respectively consisting of the δδ catalytic p110 subunit (PIK3CD) and the α regulation p85 subunit (PIK3R1) by following the same procedure.

PI3Kα = PI3Kα (Homo sapiens, UniProt P42336); assay: PI3Kα kinase activity, Adapta TR-FRET ADP detection; assay type: biochemical; conditions: purified p110α/p85α heterodimer, triplicate; read-out: Kinases IC50 PI3Kα
Protocol: as §3, §4, §5, §6, §7, §8

PI3Kδ = PI3Kδ (Homo sapiens, UniProt O00329); assay: PI3Kδ kinase activity, Adapta TR-FRET ADP detection; assay type: biochemical; conditions: purified p110δ/p85α heterodimer; read-out: Kinases IC50 PI3Kδ
Protocol: as §3, §4, §5, §6, §7, §8, §9

mTOR = mTOR (Homo sapiens, UniProt P42345); assay: mTOR kinase activity, LANCE Ultra TR-FRET; assay type: biochemical; conditions: truncated mTOR protein, triplicate; read-out: Kinases IC50 mTOR
Protocol: The activity of the mTOR kinase was evaluated by using a purified truncated protein of the amino acids 1-1359 (reference: PV4753 from Invitrogen). The assay of the activity of the enzyme was carried out with the kit LANCE® Ultra which is an enzymatic test based on the detection of a phosphorylated peptide produced during the reaction, by using the fluorescence technique TR-FRET. It took place in a 384-well plate and was able to be divided into two phases: an enzymatic reaction phase and a phase for detecting the phosphorylated peptide.
During the enzymatic reaction phase, the following components were mixed in 10 μL of a same well: 5 μL of each dilution in series of inhibitors taken up in DMSO and then diluted to 1/25 in the reaction buffer (50 mM HEPES pH 7.5, 0.1% Tween-20, 1 mM EGTA, 10 mM MnCl2, 3 mM MgCl2 and 2 mM of DTT), 2.5 μL of a solution containing mTOR at the optimum concentration (concentration defined according to the optimization step described in the operating procedure of the kit) diluted in the same reaction buffer, and finally 2.5 μL of a solution containing 40 μM of ATP and 200 μM non-phosphorylated peptide diluted in the reaction buffer. For each inhibitor concentration, the reaction was conducted in three copies (triplicate). The reaction was then incubated for 120 min at room temperature without any stirring in darkness.
During the phase for detecting the phosphorylated peptide, 5 μL of an EDTA solution (32 mM) diluted in the dilution buffer (ref.: CR97-100 from Perkin Elmer) were injected into each well. After 5 min of incubation with stirring, 5 μL of a phosphorylated anti-peptide antibody solution labeled with europium (8 nM) and diluted in the same dilution buffer was added into each well. After 60 min of incubation at room temperature with stirring (40 rpm) in darkness, the 384-well plates were read in a plate reader Victor V configured for HTRF (Perkin Elmer). […] The inhibition curve was then plotted according to the fluorescence intensity value at 665 nm versus the inhibitor concentration.
The amount of inhibitor required for causing a 50% variation in the intensity of the signal corresponds to the IC50 value of the inhibitor.

HacaT = assay: Toxicity test on cells, HacaT; assay type: cell-based; conditions: Homo sapiens, 48 hours of treatment, Hoechst nuclei staining
Protocol: as §1, §2

Sequence of PI3Kγ (P48736 whole entry): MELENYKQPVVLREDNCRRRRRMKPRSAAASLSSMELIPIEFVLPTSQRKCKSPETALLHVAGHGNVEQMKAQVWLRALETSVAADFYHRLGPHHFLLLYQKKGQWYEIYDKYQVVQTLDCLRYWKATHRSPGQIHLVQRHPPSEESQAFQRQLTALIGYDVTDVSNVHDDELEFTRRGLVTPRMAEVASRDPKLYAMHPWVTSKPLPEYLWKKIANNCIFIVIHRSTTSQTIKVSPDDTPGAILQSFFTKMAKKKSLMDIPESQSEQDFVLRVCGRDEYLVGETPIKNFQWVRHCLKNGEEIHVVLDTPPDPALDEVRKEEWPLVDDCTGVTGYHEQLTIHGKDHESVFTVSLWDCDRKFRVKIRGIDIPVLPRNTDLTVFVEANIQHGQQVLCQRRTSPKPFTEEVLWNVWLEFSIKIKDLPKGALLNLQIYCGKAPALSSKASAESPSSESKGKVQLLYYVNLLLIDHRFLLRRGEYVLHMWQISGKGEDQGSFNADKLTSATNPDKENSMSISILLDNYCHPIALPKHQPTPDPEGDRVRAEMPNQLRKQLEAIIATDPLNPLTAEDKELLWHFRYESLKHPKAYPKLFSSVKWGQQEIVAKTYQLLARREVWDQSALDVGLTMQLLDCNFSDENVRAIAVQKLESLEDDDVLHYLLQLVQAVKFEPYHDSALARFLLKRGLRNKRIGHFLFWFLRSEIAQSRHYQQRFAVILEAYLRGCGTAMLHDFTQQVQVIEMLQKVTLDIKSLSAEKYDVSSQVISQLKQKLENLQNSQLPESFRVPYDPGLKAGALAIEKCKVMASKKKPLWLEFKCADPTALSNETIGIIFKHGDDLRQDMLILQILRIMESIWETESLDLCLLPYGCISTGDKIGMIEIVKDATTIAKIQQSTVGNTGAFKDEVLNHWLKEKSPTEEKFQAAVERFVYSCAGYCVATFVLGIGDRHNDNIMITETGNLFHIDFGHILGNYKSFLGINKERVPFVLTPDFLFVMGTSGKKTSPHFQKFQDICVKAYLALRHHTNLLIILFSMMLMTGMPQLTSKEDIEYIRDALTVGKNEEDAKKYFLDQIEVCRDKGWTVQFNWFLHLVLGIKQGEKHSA
Sequence of PI3Kα (P42336 whole entry): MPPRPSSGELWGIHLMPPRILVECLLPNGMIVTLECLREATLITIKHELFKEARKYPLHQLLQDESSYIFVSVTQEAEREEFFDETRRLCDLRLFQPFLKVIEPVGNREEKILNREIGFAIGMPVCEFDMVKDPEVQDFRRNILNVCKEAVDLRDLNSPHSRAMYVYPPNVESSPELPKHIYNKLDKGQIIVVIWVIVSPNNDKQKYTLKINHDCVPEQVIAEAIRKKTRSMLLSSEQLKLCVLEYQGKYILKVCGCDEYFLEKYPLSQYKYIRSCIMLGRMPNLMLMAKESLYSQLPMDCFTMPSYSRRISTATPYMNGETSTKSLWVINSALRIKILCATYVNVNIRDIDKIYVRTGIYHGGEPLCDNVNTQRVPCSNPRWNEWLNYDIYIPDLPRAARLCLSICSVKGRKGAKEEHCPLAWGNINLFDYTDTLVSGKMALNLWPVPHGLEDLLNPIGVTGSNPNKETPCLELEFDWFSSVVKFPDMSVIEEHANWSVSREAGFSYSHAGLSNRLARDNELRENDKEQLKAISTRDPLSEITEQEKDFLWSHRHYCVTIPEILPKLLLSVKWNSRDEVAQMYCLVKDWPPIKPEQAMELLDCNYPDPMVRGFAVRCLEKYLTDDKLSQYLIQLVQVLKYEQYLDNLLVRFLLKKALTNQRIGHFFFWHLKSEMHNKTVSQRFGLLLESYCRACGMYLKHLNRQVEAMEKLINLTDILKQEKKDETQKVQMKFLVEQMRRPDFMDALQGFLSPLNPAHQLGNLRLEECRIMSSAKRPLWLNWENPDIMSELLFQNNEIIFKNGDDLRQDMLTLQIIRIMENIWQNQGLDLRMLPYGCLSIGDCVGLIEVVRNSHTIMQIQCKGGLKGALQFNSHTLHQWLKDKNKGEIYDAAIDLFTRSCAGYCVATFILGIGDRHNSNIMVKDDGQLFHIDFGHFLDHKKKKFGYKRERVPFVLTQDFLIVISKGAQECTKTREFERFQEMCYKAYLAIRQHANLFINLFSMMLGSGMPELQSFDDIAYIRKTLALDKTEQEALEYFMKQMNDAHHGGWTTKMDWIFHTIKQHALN
Sequence of PI3Kα (P27986 whole entry partner): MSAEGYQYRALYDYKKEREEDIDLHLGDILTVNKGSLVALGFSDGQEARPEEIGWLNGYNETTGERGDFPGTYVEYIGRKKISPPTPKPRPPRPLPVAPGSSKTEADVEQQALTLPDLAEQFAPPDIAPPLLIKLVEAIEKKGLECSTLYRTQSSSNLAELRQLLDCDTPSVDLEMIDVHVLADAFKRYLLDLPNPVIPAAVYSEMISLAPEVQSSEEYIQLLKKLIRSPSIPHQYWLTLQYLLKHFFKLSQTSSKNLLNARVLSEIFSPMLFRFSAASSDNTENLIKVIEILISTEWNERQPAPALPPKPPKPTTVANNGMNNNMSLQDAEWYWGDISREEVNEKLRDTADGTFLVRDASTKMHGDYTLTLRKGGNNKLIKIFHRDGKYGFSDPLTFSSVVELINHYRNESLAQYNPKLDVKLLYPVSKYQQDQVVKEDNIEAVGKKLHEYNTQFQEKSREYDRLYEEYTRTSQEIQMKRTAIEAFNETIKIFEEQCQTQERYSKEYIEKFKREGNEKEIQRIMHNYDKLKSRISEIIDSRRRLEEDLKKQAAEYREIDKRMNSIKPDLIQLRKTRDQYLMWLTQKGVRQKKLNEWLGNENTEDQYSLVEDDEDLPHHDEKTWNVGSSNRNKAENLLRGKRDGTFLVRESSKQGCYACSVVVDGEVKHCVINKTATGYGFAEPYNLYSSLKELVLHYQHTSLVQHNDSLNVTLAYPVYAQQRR
Sequence of mTOR (P42345 1360-2549): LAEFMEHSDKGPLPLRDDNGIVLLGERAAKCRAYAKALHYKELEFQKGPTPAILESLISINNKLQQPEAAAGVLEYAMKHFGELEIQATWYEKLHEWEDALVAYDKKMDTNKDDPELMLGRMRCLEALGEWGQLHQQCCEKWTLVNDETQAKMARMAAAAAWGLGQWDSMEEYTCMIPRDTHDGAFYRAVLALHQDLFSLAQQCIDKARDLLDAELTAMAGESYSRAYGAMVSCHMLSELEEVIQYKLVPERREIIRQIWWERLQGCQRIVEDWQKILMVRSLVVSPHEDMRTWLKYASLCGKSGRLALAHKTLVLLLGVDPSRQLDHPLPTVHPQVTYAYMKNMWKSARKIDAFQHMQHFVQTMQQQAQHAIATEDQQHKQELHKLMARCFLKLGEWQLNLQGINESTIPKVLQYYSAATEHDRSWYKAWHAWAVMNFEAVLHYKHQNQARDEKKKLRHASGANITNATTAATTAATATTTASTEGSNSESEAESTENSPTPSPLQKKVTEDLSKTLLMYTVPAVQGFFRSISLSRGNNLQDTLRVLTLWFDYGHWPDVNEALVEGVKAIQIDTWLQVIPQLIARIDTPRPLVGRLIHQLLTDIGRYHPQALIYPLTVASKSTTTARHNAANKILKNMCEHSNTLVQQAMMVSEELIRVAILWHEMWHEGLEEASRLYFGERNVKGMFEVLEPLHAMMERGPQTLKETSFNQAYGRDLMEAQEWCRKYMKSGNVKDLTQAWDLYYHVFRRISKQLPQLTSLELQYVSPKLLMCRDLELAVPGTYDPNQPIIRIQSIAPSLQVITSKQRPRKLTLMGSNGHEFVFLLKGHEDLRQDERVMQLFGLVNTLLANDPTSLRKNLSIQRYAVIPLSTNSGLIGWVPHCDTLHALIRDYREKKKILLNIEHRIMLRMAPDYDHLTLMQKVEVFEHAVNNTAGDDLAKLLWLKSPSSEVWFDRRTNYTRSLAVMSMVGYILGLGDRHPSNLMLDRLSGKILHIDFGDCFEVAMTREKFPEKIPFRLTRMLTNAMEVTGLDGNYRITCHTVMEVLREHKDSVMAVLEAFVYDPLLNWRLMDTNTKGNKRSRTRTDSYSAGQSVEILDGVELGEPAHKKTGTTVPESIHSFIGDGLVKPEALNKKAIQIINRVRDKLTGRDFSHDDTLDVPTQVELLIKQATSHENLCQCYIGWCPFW

| melting point [°C] | IC50 (PI3Kγ) [nM] | IC50 (PI3Kα) [nM] | IC50 (PI3Kδ) [nM] | IC50 (mTOR) [nM] | Compound | IC50 (NCl) [µM] | IC50 (MDA) [µM] | IC50 (CaCo2) [µM] | IC50 (PC3) [µM] | IC50 (HUH7) [µM] | IC50 (Fibroblasts) [µM] | IC50 (HCT116) [µM] | IC50 (HacaT) [µM] |
| --- | --- | --- | --- | --- | --- | --- | --- | --- | --- | --- | --- | --- | --- |
| 157 | 431 | 32 | 16 | > 50000 | OCc1cccc(-c2nc(N3CCOCC3)c3ncc(Cl)cc3n2)c1 [Compound 8, (3-(7-Chloro-4-morpholinopyrido[3,2-d]pyrimidin-2-yl)phenyl)methanol] | > 25 | 20 | 3 | 20 | 25 | 2 | 5 |  |
| > 260 | 1700 | 1600 | 2100 | 370 | C=Cc1cnc2c(N3CCOCC3)nc(-c3ccc(O)cc3)nc2c1 [Compound 16, 4-(4-Morpholino-7-vinylpyrido[3,2-d]pyrimidin-2-yl)phenol] | > 25 | > 25 | > 25 | > 25 | > 25 | > 25 | > 25 | > 25 |
| > 260 |  | 23 |  |  | O=C(Nc1ccc(CO)cc1)Nc1ccc(-c2nc(N3CCOCC3)c3ncc(CN4CCOCC4)cc3n2)cc1 [Compound 78, 1-[4-(hydroxymethyl)phenyl]-3-{4-[4-(morpholin-4-yl)-7-(morpholin-4 ylmethyl)pyrido[3,2-d]pyrimidin-2-yl]phenyl}urea] | 3 | 3 | 12 | 2 | 2 | > 25 | 1 | 2 |

Second part, the compound before the results:

| Compound | melting point [°C] | IC50 (PI3Kγ) [nM] | IC50 (PI3Kα) [nM] | IC50 (PI3Kδ) [nM] | IC50 (mTOR) [nM] | IC50 (NCl) [µM] | IC50 (MDA) [µM] | IC50 (CaCo2) [µM] | IC50 (PC3) [µM] | IC50 (HUH7) [µM] | IC50 (Fibroblasts) [µM] | IC50 (HCT116) [µM] | IC50 (HacaT) [µM] |
| --- | --- | --- | --- | --- | --- | --- | --- | --- | --- | --- | --- | --- | --- |
| Oc1ccccc1-c1nc(N2CCOCC2)c2ncc(Cl)cc2n1 [Compound 5, 2-(7-Chloro-4-morpholinopyrido[3,2-d]pyrimidin-2-yl)phenol] | 212 |  |  |  |  | > 25 | > 25 | > 25 | > 25 | > 25 | > 25 | > 25 |  |
| Oc1ccc(-c2nc(N3CCOCC3)c3ncc(Cl)cc3n2)cc1 [Compound 7, 4-(7-Chloro-4-morpholinopyrido[3,2-d]pyrimidin-2-yl)phenol] | 253 to 254 | > 50000 | 15200 | 1500 | 184 | > 25 | 25 | 25 | 25 | 25 | > 25 | > 25 |  |
| COc1ccc(-c2nc(N3CCOCC3)c3ncc(Cl)cc3n2)cc1 [Compound 9, 4-(7-chloro-2-(4-methoxyphenyl)pyrido[3,2-d]pyrimidin-4-yl)morpholine] | 176 | 3100 | 6200 | 363 | > 50000 | > 25 | > 25 | > 25 | > 25 | > 25 | > 25 | > 25 | > 25 |
| O=[N+]([O-])c1ccc(-c2nc(N3CCOCC3)c3ncc(Cl)cc3n2)cc1 [Compound 10, 4-(7-chloro-2-(4-nitrophenyl)pyrido[3,2-d]pyrimidin-4-yl)morpholine] | 200 |  |  |  |  |  |  |  |  |  |  |  |  |
| O=C(Nc1ccc(-c2nc(N3CCOCC3)c3ncc(CN4CCOCC4)cc3n2)cc1)Nc1cccc(CO)c1 [Compound 80, 1-[3-(hydroxymethyl)phenyl]-3-{4-[4-(morpholin-4-yl)-7-(morpholin-4-ylmethyl)pyrido[3,2-d]pyrimidin-2-yl]phenyl}urea] | 200 to 202 |  |  |  |  |  |  |  |  |  |  |  |  |

Source: patent US10202372B2, “Trisubstituted pyrido[2,3-D]pyrimidines, methods for preparing same and therapeutic uses thereof” (CENTRE NATIONAL DE LA RECHERCHE SCIENTIFIQUE (C.N.R.S), priority 2012, dated 2019)
